# Test results published in article PMC8546892 (Acta Pharmaceutica Sinica. B, 2021).
# Residues, ends and D or L forms follow the SMILES beside them. *: point of attachment. Cbz = O=C(OCc1ccccc1)*
# Tested on: GSK-3β
# Experiment: Immunoblot of GSK-3β in Trib3-silenced AMs with MG132 or 3MA
# Assay type: cell-based, mouse
# Settings: immunoblots, Fig. S4C
smiles,measurement,value
CC(C)C[C@@H](C=O)NC(=O)[C@H](CC(C)C)NC(=O)[C@H](CC(C)C)NC(=O)OCc1ccccc1 [MG132] (Cbz-Leu-Leu-Leu-aldehyde),Trib3 depletion-induced reduction in GSK-3β expression,reversed
